Reference: PubChem BioAssay (NCI)
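96-well plates; 48 h exposure; 5 concentrations. Endpoints by linear interpolation between flanking doses. Not reached: highest tested concentration assigned. GI50 = concentration required for 50% inhibition of growth. Definition used: TGI = concentration required for complete inhibition of growth.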

Key:
Test in all cases: NCI anticancer screen, dose series, 48 h
786-0 renal = tested on: 786-0 renal
MDA-MB-231 breast = tested on: MDA-MB-231 breast
NCI-H522 lung = tested on: NCI-H522 lung
HOP-62 NSCLC = tested on: HOP-62 NSCLC
SK-OV-3 ovarian = tested on: SK-OV-3 ovarian
LOX IMVI melanoma = tested on: LOX IMVI melanoma
OVCAR-3 ovarian = tested on: OVCAR-3 ovarian
M14 melanoma = tested on: M14 melanoma
HOP-92 NSCLC = tested on: HOP-92 NSCLC
HCT-116 colon = tested on: HCT-116 colon
KM12 colon = tested on: KM12 colon
U251 CNS = tested on: U251 CNS
ACHN renal = tested on: ACHN renal
TK-10 renal = tested on: TK-10 renal
HCC-2998 colon = tested on: HCC-2998 colon
OVCAR-4 ovarian = tested on: OVCAR-4 ovarian
PC-3 prostate = tested on: PC-3 prostate
NCI-H460 lung = tested on: NCI-H460 lung
CAKI-1 renal = tested on: CAKI-1 renal
UACC-62 melanoma = tested on: UACC-62 melanoma
T-47D breast = tested on: T-47D breast
NCI-H23 lung = tested on: NCI-H23 lung
A498 renal = tested on: A498 renal
K-562 leukemia = tested on: K-562 leukemia
EKVX NSCLC = tested on: EKVX NSCLC
SK-MEL-2 melanoma = tested on: SK-MEL-2 melanoma
SF-539 CNS = tested on: SF-539 CNS
CCRF-CEM leukemia = tested on: CCRF-CEM leukemia
UO-31 renal = tested on: UO-31 renal
HL-60(TB) leukemia = tested on: HL-60(TB) leukemia
MCF7 breast = tested on: MCF7 breast
COLO 205 colon = tested on: COLO 205 colon
HS 578T breast = tested on: HS 578T breast
DU-145 prostate = tested on: DU-145 prostate
SR leukemia = tested on: SR leukemia
OVCAR-8 ovarian = tested on: OVCAR-8 ovarian
MALME-3M melanoma = tested on: MALME-3M melanoma
SNB-19 CNS = tested on: SNB-19 CNS
SK-MEL-5 melanoma = tested on: SK-MEL-5 melanoma
OVCAR-5 ovarian = tested on: OVCAR-5 ovarian
SNB-75 CNS = tested on: SNB-75 CNS
SW-620 colon = tested on: SW-620 colon
SF-295 CNS = tested on: SF-295 CNS
BT-549 breast = tested on: BT-549 breast
SF-268 CNS = tested on: SF-268 CNS
NCI/ADR-RES ovarian = tested on: NCI/ADR-RES ovarian
MDA-MB-435 = tested on: MDA-MB-435
RXF 393 renal = tested on: RXF 393 renal
NCI-H226 lung = tested on: NCI-H226 lung
SN12C renal = tested on: SN12C renal
A549 NSCLC = tested on: A549 NSCLC
IGROV1 ovarian = tested on: IGROV1 ovarian
HCT-15 colon = tested on: HCT-15 colon
SK-MEL-28 melanoma = tested on: SK-MEL-28 melanoma
RPMI-8226 leukemia = tested on: RPMI-8226 leukemia
UACC-257 melanoma = tested on: UACC-257 melanoma

Structure (SMILES): Oc1c(Cl)cc(Cl)c2ccc(Cn3cc(-c4cc(F)cc(F)c4)nn3)nc12
- GI50 (786-0 renal): 2.09 µM
- TGI (786-0 renal): 4.84 µM
- GI50 (MDA-MB-231 breast): 2.71 µM
- TGI (MDA-MB-231 breast): 8.65 µM
- GI50 (NCI-H522 lung): 1.72 µM
- TGI (NCI-H522 lung): 4.83 µM
- GI50 (HOP-62 NSCLC): 17.4 µM
- TGI (HOP-62 NSCLC): 34.9 µM
- GI50 (SK-OV-3 ovarian): 17 µM
- TGI (SK-OV-3 ovarian): 31.9 µM
- GI50 (LOX IMVI melanoma): 1.31 µM
- TGI (LOX IMVI melanoma): 2.68 µM
- GI50 (OVCAR-3 ovarian): 1.66 µM
- TGI (OVCAR-3 ovarian): 3.2 µM
- GI50 (M14 melanoma): 2.02 µM
- TGI (M14 melanoma): 4.92 µM
- GI50 (HOP-92 NSCLC): 1.63 µM
- TGI (HOP-92 NSCLC): 4.37 µM
- GI50 (HCT-116 colon): 1.61 µM
- TGI (HCT-116 colon): 3.53 µM
- GI50 (KM12 colon): 16.3 µM
- TGI (KM12 colon): 32.1 µM
- GI50 (U251 CNS): 7.38 µM
- TGI (U251 CNS): 21.2 µM
- GI50 (ACHN renal): 1.73 µM
- TGI (ACHN renal): 3.14 µM
- GI50 (TK-10 renal): 2.1 µM
- TGI (TK-10 renal): 4.23 µM
- GI50 (HCC-2998 colon): 13.3 µM
- TGI (HCC-2998 colon): 29.1 µM
- GI50 (OVCAR-4 ovarian): 1.87 µM
- TGI (OVCAR-4 ovarian): 4.43 µM
- GI50 (PC-3 prostate): 5.26 µM
- TGI (PC-3 prostate): 18.8 µM
- GI50 (NCI-H460 lung): 18.8 µM
- TGI (NCI-H460 lung): 35.8 µM
- GI50 (CAKI-1 renal): 1.78 µM
- TGI (CAKI-1 renal): 4 µM
- GI50 (UACC-62 melanoma): 3.39 µM
- TGI (UACC-62 melanoma): 14.4 µM
- GI50 (T-47D breast): 2.27 µM
- TGI (T-47D breast): 7.17 µM
- GI50 (NCI-H23 lung): 3.5 µM
- TGI (NCI-H23 lung): 12.8 µM
- GI50 (A498 renal): 5.78 µM
- TGI (A498 renal): 19.6 µM
- GI50 (K-562 leukemia): 1.09 µM
- TGI (K-562 leukemia): > 100 µM
- GI50 (EKVX NSCLC): 11.7 µM
- TGI (EKVX NSCLC): 25.5 µM
- GI50 (SK-MEL-2 melanoma): 5.19 µM
- TGI (SK-MEL-2 melanoma): 20.2 µM
- GI50 (SF-539 CNS): 1.63 µM
- TGI (SF-539 CNS): 3.08 µM
- GI50 (CCRF-CEM leukemia): 0.832 µM
- TGI (CCRF-CEM leukemia): > 100 µM
- GI50 (UO-31 renal): 2.06 µM
- TGI (UO-31 renal): 9.93 µM
- GI50 (HL-60(TB) leukemia): 2.08 µM
- TGI (HL-60(TB) leukemia): 5.78 µM
- GI50 (MCF7 breast): 1.54 µM
- TGI (MCF7 breast): 3.62 µM
- GI50 (COLO 205 colon): 2.06 µM
- TGI (COLO 205 colon): 4.04 µM
- GI50 (HS 578T breast): 3.22 µM
- TGI (HS 578T breast): 20 µM
- GI50 (DU-145 prostate): 2.14 µM
- TGI (DU-145 prostate): 4.6 µM
- GI50 (SR leukemia): 2.87 µM
- TGI (SR leukemia): > 100 µM
- GI50 (OVCAR-8 ovarian): 3.42 µM
- TGI (OVCAR-8 ovarian): 27.2 µM
- GI50 (MALME-3M melanoma): 1.84 µM
- TGI (MALME-3M melanoma): 3.74 µM
- GI50 (SNB-19 CNS): 11.9 µM
- TGI (SNB-19 CNS): 25.1 µM
- GI50 (SK-MEL-5 melanoma): 4.1 µM
- TGI (SK-MEL-5 melanoma): 14.9 µM
- GI50 (OVCAR-5 ovarian): 4.01 µM
- TGI (OVCAR-5 ovarian): 15.4 µM
- GI50 (SNB-75 CNS): 2.07 µM
- TGI (SNB-75 CNS): 11.8 µM
- GI50 (SW-620 colon): 1.49 µM
- TGI (SW-620 colon): 3.35 µM
- GI50 (SF-295 CNS): 17.8 µM
- TGI (SF-295 CNS): 32.9 µM
- GI50 (BT-549 breast): 2.51 µM
- TGI (BT-549 breast): 9.49 µM
- GI50 (SF-268 CNS): 11.3 µM
- TGI (SF-268 CNS): 30.3 µM
- GI50 (NCI/ADR-RES ovarian): 24.1 µM
- TGI (NCI/ADR-RES ovarian): 85.3 µM
- GI50 (MDA-MB-435): 2.8 µM
- TGI (MDA-MB-435): 8.47 µM
- GI50 (RXF 393 renal): 1.36 µM
- TGI (RXF 393 renal): 2.99 µM
- GI50 (NCI-H226 lung): 10 µM
- TGI (NCI-H226 lung): 29 µM
- GI50 (SN12C renal): 4.21 µM
- TGI (SN12C renal): 16.2 µM
- GI50 (A549 NSCLC): 18.8 µM
- TGI (A549 NSCLC): 38.4 µM
- GI50 (IGROV1 ovarian): 1.82 µM
- TGI (IGROV1 ovarian): 4.18 µM
- GI50 (HCT-15 colon): 2.21 µM
- TGI (HCT-15 colon): 5.42 µM
- GI50 (SK-MEL-28 melanoma): 2.01 µM
- TGI (SK-MEL-28 melanoma): 4.18 µM
- GI50 (RPMI-8226 leukemia): 2.19 µM
- TGI (RPMI-8226 leukemia): 6.36 µM
- GI50 (UACC-257 melanoma): 1.76 µM
- TGI (UACC-257 melanoma): 4.83 µM
